This note sets out measurements from PubChem BioAssay AID248 (DTP/NCI, 2004).

The structures appear in SMILES notation. Inconclusive results and toxic doses are left out.

In the experiment the test system is L1210 leukemia ip in BDF1 mice, survival T/C. In words: NCI In Vivo Anticancer Drug Screen. Data for tumor model L1210 Leukemia (intraperitoneal) in B6D2F1 (BDF1) mice. Particulars: endpoint: mean survival time, higher = longer survival. Put shortly:
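Ratio derived from survival: compound-dosed mice over vehicle-dosed mice, all bearing a transplantable tumor.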

Setting [1] is: dose: 100.0 mg/kg/injection, schedule: Q04DX003 (ip), vehicle: saline with Tween-80.
[2] abbreviates: dose: 200.0 mg/kg/injection, schedule: Q04DX003 (ip), vehicle: saline with Tween-80.
The mark [3] stands for this setting: dose: 400.0 mg/kg/injection, schedule: Q04DX003 (ip), vehicle: saline with Tween-80.
The mark [4] stands for this setting: dose: 25.0 mg/kg/injection, schedule: Q04DX003 (ip), vehicle: saline.
Setting [5] is: dose: 50.0 mg/kg/injection, schedule: Q04DX003 (ip), vehicle: saline.
Where [6] appears, read: dose: 50.0 mg/kg/injection, schedule: Q01DX001 (ip), vehicle: carboxymethylcellulose (CMC).
Setting [7] is: dose: 100.0 mg/kg/injection, schedule: Q01DX001 (ip), vehicle: saline.
Setting [8] is: dose: 200.0 mg/kg/injection, schedule: Q01DX001 (ip), vehicle: saline.
The mark [9] stands for this setting: dose: 400.0 mg/kg/injection, schedule: Q01DX001 (ip), vehicle: saline.
Setting [10] is: dose: 100.0 mg/kg/injection, schedule: Q01DX009 (ip), vehicle: Klucel (hydroxypropylcellulose) (HPC).
Setting [11] is: dose: 200.0 mg/kg/injection, schedule: Q01DX009 (ip), vehicle: Klucel (hydroxypropylcellulose) (HPC).
The mark [12] stands for this setting: dose: 100.0 mg/kg/injection, schedule: Q01DX001 (ip), vehicle: carboxymethylcellulose (CMC).

In the case of `C[n+]1ccccc1/C=C/c1csc2ccccc12`, the T/C reads like this: (dose: 5.0 mg/kg/injection, schedule: Q01DX001 (ip), vehicle: carboxymethylcellulose (CMC)) 100 % of control; (dose: 10.0 mg/kg/injection, schedule: Q01DX001 (ip), vehicle: carboxymethylcellulose (CMC)) 102 % of control; (dose: 20.0 mg/kg/injection, schedule: Q01DX001 (ip), vehicle: carboxymethylcellulose (CMC)) 100 % of control; (dose: 40.0 mg/kg/injection, schedule: Q01DX001 (ip), vehicle: carboxymethylcellulose (CMC)) 100 % of control; (dose: 80.0 mg/kg/injection, schedule: Q01DX001 (ip), vehicle: carboxymethylcellulose (CMC)) 107 % of control.

Consider `CCCC(C(=O)O)c1ccccc1C` (stereo unspecified), for which the T/C was 102 % of control (dose: 100.0 mg/kg/injection, schedule: Q01DX009 (ip), vehicle: saline with Tween-80); 102 % of control under setting [1]; 98 % of control (dose: 200.0 mg/kg/injection, schedule: Q01DX009 (ip), vehicle: saline with Tween-80); 97 % of control under setting [2]; 105 % of control (dose: 400.0 mg/kg/injection, schedule: Q01DX009 (ip), vehicle: saline with Tween-80); 107 % of control under setting [3].

With `Cc1nc(N)[nH]c(=O)c1CCCNc1ccc(CCC2(CCl)OCCO2)cc1`, the T/C (dose: 50.0 mg/kg/injection, schedule: Q01DX Z (ip), vehicle: carboxymethylcellulose (CMC)) is 98 % of control; the T/C (dose: 100.0 mg/kg/injection, schedule: Q01DX Z (ip), vehicle: carboxymethylcellulose (CMC)) was 101 % of control; the T/C (dose: 200.0 mg/kg/injection, schedule: Q01DX Z (ip), vehicle: carboxymethylcellulose (CMC)) is 101 % of control; the T/C (dose: 400.0 mg/kg/injection, schedule: Q01DX Z (ip), vehicle: carboxymethylcellulose (CMC)) is 90 % of control.

On to `CCOC(=O)N1c2ccccc2C=CC1OCC` (stereo unspecified), for which the T/C was 93 % of control (dose: 12.0 mg/kg/injection, schedule: Q01DX009 (ip), vehicle: saline); 119 % of control (dose: 12.0 mg/kg/injection, schedule: Q04DX003 (ip), vehicle: saline); 89 % of control (dose: 25.0 mg/kg/injection, schedule: Q01DX009 (ip), vehicle: saline); 113 % of control under setting [4]; 89 % of control (dose: 50.0 mg/kg/injection, schedule: Q01DX009 (ip), vehicle: saline); 94 % of control under setting [5].

Regarding `CC1CCC2(OC1)OC1CC3C4CCC5CC(O)C(O)CC5(C)C4CCC3(C)C1C2C` (stereo unspecified), the T/C by setting is: (dose: 50.0 mg/kg/injection, schedule: Q01DX009 (ip), vehicle: acetone) 92 % of control; (dose: 100.0 mg/kg/injection, schedule: Q01DX009 (ip), vehicle: acetone) 92 % of control; (dose: 100.0 mg/kg/injection, schedule: Q04DX003 (ip), vehicle: saline) 92 % of control; (dose: 200.0 mg/kg/injection, schedule: Q01DX009 (ip), vehicle: acetone) 100 % of control; (dose: 200.0 mg/kg/injection, schedule: Q04DX003 (ip), vehicle: saline) 97 % of control; (dose: 400.0 mg/kg/injection, schedule: Q01DX009 (ip), vehicle: acetone) 94 % of control. Also, the T/C (dose: 400.0 mg/kg/injection, schedule: Q04DX003 (ip), vehicle: saline) was 94 % of control.

As to `Cc1ccccc1OCC(=O)Nc1cccc(NC(=O)COc2ccccc2C)c1`, the T/C is 110 % of control (dose: 50.0 mg/kg/injection, schedule: Q04DX002 (sc), vehicle: olive oil, sesame oil, peanut oil); 100 % of control (dose: 100.0 mg/kg/injection, schedule: Q04DX002 (sc), vehicle: olive oil, sesame oil, peanut oil); 95 % of control (dose: 200.0 mg/kg/injection, schedule: Q04DX002 (sc), vehicle: olive oil, sesame oil, peanut oil).

Consider `CC1(C[N+](=O)[O-])CCCC(=O)C1` (stereo unspecified), for which the T/C (dose: 75.0 mg/kg/injection, schedule: Q01DX001 (ip), vehicle: saline) is 98 % of control.

Regarding `Cc1ccc(S(=O)(=O)NC(=O)N(CCCl)N=O)cc1`, the T/C was 113 % of control (dose: 10.0 mg/kg/injection, schedule: Q01DX001 (ip), vehicle: other); 216 % of control (dose: 40.0 mg/kg/injection, schedule: Q01DX001 (ip), vehicle: other); 220 % of control (dose: 62.0 mg/kg/injection, schedule: Q01DX001 (ip), vehicle: other); 307 % of control (dose: 93.0 mg/kg/injection, schedule: Q01DX001 (ip), vehicle: other); 168 % of control (dose: 187.0 mg/kg/injection, schedule: Q01DX001 (ip), vehicle: other).

On to `CC(=S)N1CCCCC1`, for which the T/C under setting [6] is 100 % of control.

For the molecule `C[N+]1(C)C2CCC1C(CO)C(O)C2` (stereo unspecified), the T/C under setting [7] is 94 % of control, the T/C under setting [8] was 97 % of control and the T/C under setting [9] was 94 % of control.

Take `O=C1CC2(O)CCC1(c1ccccc1)CC2`: the T/C is, setting by setting: (dose: 75.0 mg/kg/injection, schedule: Q04DX002 (ip), vehicle: Klucel (hydroxypropylcellulose) (HPC)) 92 % of control; (dose: 150.0 mg/kg/injection, schedule: Q04DX002 (ip), vehicle: Klucel (hydroxypropylcellulose) (HPC)) 100 % of control; (dose: 300.0 mg/kg/injection, schedule: Q04DX002 (ip), vehicle: Klucel (hydroxypropylcellulose) (HPC)) 95 % of control.

As to `NC(N)=N/N=C(\C=C\C=C(c1ccc(Cl)cc1)c1ccc(Cl)cc1)c1ccc(Cl)cc1`, the T/C was 95 % of control (dose: 12.5 mg/kg/injection, schedule: Q04DX003 (ip), vehicle: saline); 95 % of control under setting [4]; 91 % of control under setting [5].

In the case of `CC(C)NC(=O)C1C2C=CC(CC2)C1C(=O)NC(C)C` (stereo unspecified), the T/C is, setting by setting: under setting [1], 100 % of control; under setting [2], 92 % of control; under setting [3], 104 % of control.

As for `CSc1ccc(NC(=O)Oc2ccc(NC(C)=O)cc2)cc1`, the T/C is, setting by setting: under setting [10], 98 % of control; under setting [11], 106 % of control; (dose: 400.0 mg/kg/injection, schedule: Q01DX009 (ip), vehicle: Klucel (hydroxypropylcellulose) (HPC)) 98 % of control.

`Cc1ccc(S(=O)(=O)[N-][n+]2ccccc2)cc1`: the T/C is, setting by setting: under setting [10], 93 % of control; under setting [11], 93 % of control.

As for `O=C(Nc1ccccc1)Oc1ccc(Cl)cc1Cl`, the T/C runs as follows: (dose: 100.0 mg/kg/injection, schedule: Q04DX002 (ip), vehicle: Klucel (hydroxypropylcellulose) (HPC)) 104 % of control; (dose: 200.0 mg/kg/injection, schedule: Q04DX002 (ip), vehicle: Klucel (hydroxypropylcellulose) (HPC)) 110 % of control; (dose: 400.0 mg/kg/injection, schedule: Q04DX002 (ip), vehicle: Klucel (hydroxypropylcellulose) (HPC)) 96 % of control.

As to `O=C(CCCC(=O)N/N=C/c1ccccc1Cl)N/N=C\c1ccccc1Cl`, the T/C by setting is: (dose: 50.0 mg/kg/injection, schedule: Q01DX001 (ip), vehicle: saline) 103 % of control; under setting [7], 100 % of control; under setting [8], 110 % of control; under setting [9], 110 % of control.

As to `CCSC1OC(CO)C(O)C1Nc1ccc([N+](=O)[O-])cc1[N+](=O)[O-]` (stereo unspecified), the T/C reads like this: under setting [6], 89 % of control; under setting [12], 94 % of control.

Turning to `CCC#CC(O)(C(=O)OC)c1ccccc1` (stereo unspecified), the T/C reads like this: under setting [12], 100 % of control; (dose: 200.0 mg/kg/injection, schedule: Q01DX001 (ip), vehicle: carboxymethylcellulose (CMC)) 108 % of control; (dose: 400.0 mg/kg/injection, schedule: Q01DX001 (ip), vehicle: carboxymethylcellulose (CMC)) 96 % of control.

As for `Nc1n[n+](=O)c2ccccc2n1O`, the T/C was 95 % of control (dose: 1.17 mg/kg/injection, schedule: Q01DX001 (ip), vehicle: other); 101 % of control (dose: 2.34 mg/kg/injection, schedule: Q01DX001 (ip), vehicle: other); 102 % of control (dose: 4.69 mg/kg/injection, schedule: Q01DX001 (ip), vehicle: other).

On to `C1CCN(/N=N/c2nn[nH]n2)CC1`, for which the T/C is, setting by setting: under setting [1], 94 % of control; under setting [2], 91 % of control; under setting [3], 94 % of control.

As for `O=C(O)c1ccc(B(O)O)cc1`, the T/C (dose: 100.0 mg/kg/injection, schedule: Q04DX003 (ip), vehicle: Klucel (hydroxypropylcellulose) (HPC)) was 103 % of control; the T/C (dose: 200.0 mg/kg/injection, schedule: Q04DX003 (ip), vehicle: Klucel (hydroxypropylcellulose) (HPC)) was 103 % of control; the T/C (dose: 400.0 mg/kg/injection, schedule: Q04DX003 (ip), vehicle: Klucel (hydroxypropylcellulose) (HPC)) is 93 % of control.
